Molecular target: T1, Human plasma kallikrein (Homo sapiens, UniProt P03952)
T1 construct: purchased Kordia (Leiden, Netherlands) batch HPKA 1303
Test: In vitro inhibition of plasma kallikrein (fluorogenic substrate DPro-Phe-Arg-(Rh110)-γGlu-OH)
Type: biochemical
Procedure: In Vitro Inhibition of Plasma Kallikrein
The fluorogenic substrate DPro-Phe-Arg-(Rh110)-γGlu-OH (where DPro is the amino acid d-proline, Rh110 is the fluorophore rhodamine 110 and γGlu is a […] linked to Rh110 via the gamma-carbonyl function; from Biosyntan, Berlin, Germany), being based on the chromogenic substrate described in Gallimore et al (Thromb Res 25, 293-298, 1982), was dissolved in DMSO at 5 mM and stored at −80° C. All other chemicals were of analytical grade.
Human plasma kallikrein was purchased from Kordia (Leiden, Netherlands, batch HPKA 1303) in lyophilized form.
The protein solution was reconstituted from the lyophilisate by addition of deinonized water. The resulting stock solution comprised the protein at a concentration of 0.17 mg/ml in 4 mM sodium acetate/HCl and 150 mM NaCl at pH 5.3. The stock solution was stored in aliquots at −80° C.
Enzymatic reactions were conducted in ‘assay buffer’, comprising 50 mM Hepes/NaOH at pH 7.8, 150 mM NaCl, 1 mM EDTA and 0.05% (w/v) CHAPS.
Both, enzyme and substrate were diluted in assay buffer.
All protein and peptide containing solutions were handled in siliconized tubes (Life Systems Design, Merenschwand, Switzerland). The compound solutions as well as the enzyme and the substrate solutions were transferred to 384-well plates (black Cliniplate; cat. no. 95040020 Labsystems Oy, Finland) by means of a CyBi-Well 96-channel pipettor (CyBio AG, Jena, Germany). Plate measurements were conducted by the means of a Safire2 reader (TECAN, Maennedorf, Switzerland). The Safire2 is a monochomator-based instrument and wavelengths of 485 nm and 535 nm were taken for fluorescence excitation and emission acquisition, respectively. The bandwidths were set to 10 nm in both the excitation and the emission path. The fluorescence in each well was excited by three flashes per measurement.
Determination of IC50 Values
For the determination of IC50 values, the assays were performed at room temperature in 384-well plates with a total assay volume of 25.25 μl per well.
The test compound was dissolved in 90% (v/v) DMSO/water. For the assays, 250 nL of the 90% (v/v) DMSO/water solution or compound solution were added per well, followed by the addition of 12.5 μl protease solution (protease in assay buffer). The final assay concentration of the human plasma kallikrein was nominally 12 pM, the 11 compound concentrations in the dilution series were in the range form 1 nM to 100 μM. After 1 hour of pre-incubation at room temperature, the reactions were started by the addition of 12.5 μl substrate solution (in assay buffer, final assay concentration was 0.5 μM). After the addition of the substrate solution, the final DMSO concentration in the assay was 0.9% (v/v). The effect of the compound on the enzymatic activity was obtained from the linear part of the progress curves and determined after 1 hour (t=60 min). The IC50 value was calculated from the plot of percentage of inhibition vs. inhibitor concentration by a logistics fit according to the following equation:
where y is the %-inhibition at the inhibitor concentration, x. A1 is the lowest inhibition value, i.e. 0%, and A2 the maximum inhibition value, i.e. 100%. The exponent, p, is the Hill coefficient. The curve fitting was conducted with the non-linear regression routine of the analysis software Origin 7.5SR6 (Origin Lab Corporation).

[1] = human plasma kallikrein 12 pM, substrate 0.5 μM, 1 hour pre-incubation at room temperature, read after 1 hour
[2] = the above-described assay (human plasma kallikrein)

T1 sequence (P03952 391-638 limits assumed): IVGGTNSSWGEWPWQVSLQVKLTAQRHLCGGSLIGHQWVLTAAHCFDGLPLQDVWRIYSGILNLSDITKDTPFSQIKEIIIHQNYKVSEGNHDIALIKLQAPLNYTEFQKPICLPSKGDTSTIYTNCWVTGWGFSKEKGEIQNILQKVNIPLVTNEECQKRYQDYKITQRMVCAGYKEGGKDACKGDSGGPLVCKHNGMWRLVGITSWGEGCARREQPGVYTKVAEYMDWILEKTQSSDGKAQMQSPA
T1 sequence (P03952 20-390 partner limits assumed): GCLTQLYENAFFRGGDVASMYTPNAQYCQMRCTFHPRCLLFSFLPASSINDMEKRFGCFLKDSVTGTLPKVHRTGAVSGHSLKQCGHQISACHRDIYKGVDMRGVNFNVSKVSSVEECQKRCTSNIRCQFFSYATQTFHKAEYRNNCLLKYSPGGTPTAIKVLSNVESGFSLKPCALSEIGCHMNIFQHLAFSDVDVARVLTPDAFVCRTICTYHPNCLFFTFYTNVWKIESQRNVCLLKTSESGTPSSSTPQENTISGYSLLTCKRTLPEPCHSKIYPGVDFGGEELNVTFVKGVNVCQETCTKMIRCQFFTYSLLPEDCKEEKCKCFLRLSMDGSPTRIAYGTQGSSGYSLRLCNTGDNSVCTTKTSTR

Row | Compound | IC50 [1] [µM] | IC50 [2] [µM]
1 | Cc1cc(N)nc(C)c1CNC(=O)c1cc2ccccc2[nH]1 [Example 5, N-((6-amino-2,4-dimethylpyridin-3-yl)methyl)-1H-indole-2-carboxamide] | 3.81 | 
2 | Cc1cc(N)nc(C)c1CNC(=O)c1ccc2ccccc2c1 [Example 6, N-((6-amino-2,4-dimethylpyridin-3-yl)methyl)-2-naphthamide] | 2.32 | 
3 | Cc1cc(N)nc(C)c1CNc1ncc2ccn(Cc3ccc4ccccc4c3)c2n1 [Example 7, N-((6-amino-2,4-dimethylpyridin-3-yl)methyl)-7-(naphthalen-2-ylmethyl)-7H-pyrrolo[2,3-d]pyrimidin-2-amine] | 1.63 | 
4 | Cc1cc(N)nc(C)c1CNC(=O)c1cc2ccccc2s1 [Example 3, N-((6-amino-2,4-dimethylpyridin-3-yl)methyl)benzo[b]thiophene-2-carboxamide] | 5.39 | 
5 | Cc1cc(N)nc(C)c1CNc1ncnc2c1ccn2C [N-((6-amino-2,4-dimethyl-pyridin-3-yl)-methyl)-9-methyl-2,4,9-triaza-bicyclo[4.3.0]nona-1(6),2,4,7-tetraen-5-amine] |  | > 30
6 | Cc1cc(N)nc(C)c1CNc1ncnc2oc(Cc3c(Cl)cccc3Cl)nc12 [Example 4, N-((6-amino-2,4-dimethylpyridin-3-yl)methyl)-2-(2,6-dichlorobenzyl) oxazolo[5,4-d]pyrimidin-7-amine] | 1.78 | 
7 | CCc1cc2c(NCc3c(C)cc(N)nc3C)ncnc2s1 [Example 1, N-((6-amino-2,4-dimethylpyridin-3-yl)methyl)-6-ethylthieno[2,3-d]pyrimidin-4-amine] | 27.1 | 
8 | Cc1cc(N)nc(C)c1CNC(=O)c1cc2ccccc2o1 [Example 2, N-((6-amino-2,4-dimethylpyridin-3-yl)methyl)benzofuran-2-carboxamide] | 4.73 | 
9 | COc1cc2ncnc(NCc3c(C)cc(N)nc3C)c2cc1OC [N-((6-amino-2,4-dimethyl-pyridin-3-yl)-methyl)-8,9-dimethoxy-2,4-diaza-bicyclo[4.4.0]deca-1(6),2,4,7,9-pentaen-5-amine] |  | > 30

Source: patent US20140350034A1, “Aminopyridine derivatives as plasma kallikrein inhibitors” (NOVARTIS AG, priority 2012, published 2014)
